{"source": "PubChem BioAssay AID2060328", "about": "(Molecular Pharmacology Branch, DTP, NCI, 2025)", "system": "MDA-MB-231 multicell spheroids, viability (%T/C)", "assay": "Anticancer human tumor MDA-MB-231 cell line growth inhibition [IpAb];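 note: viability read after seven days of drug exposure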;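 for viability, T/C: 100% = DMSO vehicle control viability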", "details": "for viability, T/C: stronger effect = lower value", "in_short": "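Combinations with ipatasertib or abemaciclib were tested on tumour spheroids holding HUVEC (25%) and MSC (15%) alongside 60% malignant cells. Top concentration was at or near clinical Cmax (10 microM if undefined), descending in half-log steps.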", "key": {"[1]": {"details": "curve of first compound, second compound 0.01 µM"}, "[2]": {"details": "curve of first compound, second compound 0.0316 µM"}, "[3]": {"details": "curve of first compound, second compound 0.1 µM"}, "[4]": {"details": "curve of first compound, second compound 0.316 µM"}, "[5]": {"details": "curve of first compound, second compound 1 µM"}}, "note": "“And” between values parts separate entries of the source, which are not always exact repeats. Identical values can stand only once."}
{"smiles": "Cn1ncc(Cl)c1-c1cc(C(=O)NC(CN)Cc2cccc(F)c2)sc1Cl", "note": "(centres undefined)", "values": [{"measurement": "viability, T/C", "setting": "compound 0.0316 µM", "value": "100% and 101%"}, {"measurement": "viability, T/C", "setting": "compound 0.1 µM", "value": "89.6% and 87.9%"}, {"measurement": "viability, T/C", "setting": "compound 0.316 µM", "value": 75.6, "unit": "%"}, {"measurement": "viability, T/C", "setting": "compound 1 µM", "value": "57.4% and 57.5%"}, {"measurement": "viability, T/C", "setting": "compound 3.16 µM", "value": "37.4% and 30%"}, {"measurement": "viability, T/C", "setting": "compound 10 µM", "value": "0.23% and 0.17%"}, {"measurement": "IC50", "setting": "curve of compound", "value": "1520 nM and 1330 nM"}]}
{"smiles": "Cn1cnc2c(F)c(Nc3ccc(Br)cc3Cl)c(C(=O)NOCCO)cc21", "values": [{"measurement": "viability, T/C", "setting": "compound 0.00949 µM", "value": "75.6% and 63.3%"}, {"measurement": "viability, T/C", "setting": "compound 0.03 µM", "value": "59.9% and 54.4%"}, {"measurement": "viability, T/C", "setting": "compound 0.0949 µM", "value": "54.8% and 50.4%"}, {"measurement": "viability, T/C", "setting": "compound 0.3 µM", "value": "52.9% and 41.3%"}, {"measurement": "viability, T/C", "setting": "compound 0.949 µM", "value": "27.7% and 30.4%"}, {"measurement": "viability, T/C", "setting": "compound 3 µM", "value": "14.4% and 19.2%"}, {"measurement": "IC50", "setting": "curve of compound", "value": "186 nM and 72.9 nM"}]}
{"smiles": "Cn1cnc2c(F)c(Nc3ccc(Br)cc3Cl)c(C(=O)NOCCO)cc21", "note": "+ CCN1CCN(Cc2ccc(Nc3ncc(F)c(-c4cc(F)c5nc(C)n(C(C)C)c5c4)n3)nc2)CC1", "values": [{"measurement": "IC50", "setting": "[1]", "value": 34.1, "unit": "nM"}, {"measurement": "IC50", "setting": "[2]", "value": "< 9.49", "unit": "nM"}, {"measurement": "IC50", "setting": "[3]", "value": "< 9.49", "unit": "nM"}, {"measurement": "IC50", "setting": "[4]", "value": "< 9.49", "unit": "nM"}, {"measurement": "IC50", "setting": "[5]", "value": "< 9.49", "unit": "nM"}, {"measurement": "viability, T/C", "setting": "second compound 0.01 µM, first compound 0.00949 µM", "value": 54.5, "unit": "%"}, {"measurement": "viability, T/C", "setting": "second compound 0.01 µM, first compound 0.03 µM", "value": 53.4, "unit": "%"}, {"measurement": "viability, T/C", "setting": "second compound 0.01 µM, first compound 0.0949 µM", "value": 42.8, "unit": "%"}, {"measurement": "viability, T/C", "setting": "second compound 0.01 µM, first compound 0.3 µM", "value": 36.9, "unit": "%"}, {"measurement": "viability, T/C", "setting": "second compound 0.01 µM, first compound 0.949 µM", "value": 32.3, "unit": "%"}, {"measurement": "viability, T/C", "setting": "second compound 0.01 µM, first compound 3 µM", "value": 20.4, "unit": "%"}, {"measurement": "viability, T/C", "setting": "second compound 0.0316 µM, first compound 0.00949 µM", "value": 46.3, "unit": "%"}, {"measurement": "viability, T/C", "setting": "second compound 0.0316 µM, first compound 0.03 µM", "value": 40.9, "unit": "%"}, {"measurement": "viability, T/C", "setting": "second compound 0.0316 µM, first compound 0.0949 µM", "value": 35.9, "unit": "%"}, {"measurement": "viability, T/C", "setting": "second compound 0.0316 µM, first compound 0.3 µM", "value": 30.9, "unit": "%"}, {"measurement": "viability, T/C", "setting": "second compound 0.0316 µM, first compound 0.949 µM", "value": 25.5, "unit": "%"}, {"measurement": "viability, T/C", "setting": "second compound 0.0316 µM, first compound 3 µM", "value": 13.3, "unit": "%"}, {"measurement": "viability, T/C", "setting": "second compound 0.1 µM, first compound 0.00949 µM", "value": 36.9, "unit": "%"}, {"measurement": "viability, T/C", "setting": "second compound 0.1 µM, first compound 0.03 µM", "value": 30.1, "unit": "%"}, {"measurement": "viability, T/C", "setting": "second compound 0.1 µM, first compound 0.0949 µM", "value": 29.6, "unit": "%"}, {"measurement": "viability, T/C", "setting": "second compound 0.1 µM, first compound 0.3 µM", "value": 25.4, "unit": "%"}, {"measurement": "viability, T/C", "setting": "second compound 0.1 µM, first compound 0.949 µM", "value": 19.2, "unit": "%"}, {"measurement": "viability, T/C", "setting": "second compound 0.1 µM, first compound 3 µM", "value": 12.2, "unit": "%"}, {"measurement": "viability, T/C", "setting": "second compound 0.316 µM, first compound 0.00949 µM", "value": 28.2, "unit": "%"}, {"measurement": "viability, T/C", "setting": "second compound 0.316 µM, first compound 0.03 µM", "value": 27, "unit": "%"}, {"measurement": "viability, T/C", "setting": "second compound 0.316 µM, first compound 0.0949 µM", "value": 22, "unit": "%"}, {"measurement": "viability, T/C", "setting": "second compound 0.316 µM, first compound 0.3 µM", "value": 19.2, "unit": "%"}, {"measurement": "viability, T/C", "setting": "second compound 0.316 µM, first compound 0.949 µM", "value": 16.1, "unit": "%"}, {"measurement": "viability, T/C", "setting": "second compound 0.316 µM, first compound 3 µM", "value": 9.49, "unit": "%"}, {"measurement": "viability, T/C", "setting": "second compound 1 µM, first compound 0.00949 µM", "value": 28.7, "unit": "%"}, {"measurement": "viability, T/C", "setting": "second compound 1 µM, first compound 0.03 µM", "value": 25.3, "unit": "%"}, {"measurement": "viability, T/C", "setting": "second compound 1 µM, first compound 0.0949 µM", "value": 20.1, "unit": "%"}, {"measurement": "viability, T/C", "setting": "second compound 1 µM, first compound 0.3 µM", "value": 17.4, "unit": "%"}, {"measurement": "viability, T/C", "setting": "second compound 1 µM, first compound 0.949 µM", "value": 14.9, "unit": "%"}, {"measurement": "viability, T/C", "setting": "second compound 1 µM, first compound 3 µM", "value": 10.7, "unit": "%"}]}
{"smiles": "Cn1ncnc1[C@H]1c2n[nH]c(=O)c3cc(F)cc(c23)N[C@@H]1c1ccc(F)cc1", "note": "+ CCN1CCN(Cc2ccc(Nc3ncc(F)c(-c4cc(F)c5nc(C)n(C(C)C)c5c4)n3)nc2)CC1", "values": [{"measurement": "IC50", "setting": "[1]", "value": "> 100", "unit": "nM"}, {"measurement": "IC50", "setting": "[2]", "value": "> 100", "unit": "nM"}, {"measurement": "IC50", "setting": "[3]", "value": 37.6, "unit": "nM"}, {"measurement": "IC50", "setting": "[4]", "value": "< 0.316", "unit": "nM"}, {"measurement": "IC50", "setting": "[5]", "value": "< 0.316", "unit": "nM"}, {"measurement": "viability, T/C", "setting": "second compound 0.01 µM, first compound 0.000316 µM", "value": 86.5, "unit": "%"}, {"measurement": "viability, T/C", "setting": "second compound 0.01 µM, first compound 0.001 µM", "value": 85.5, "unit": "%"}, {"measurement": "viability, T/C", "setting": "second compound 0.01 µM, first compound 0.00316 µM", "value": 79.6, "unit": "%"}, {"measurement": "viability, T/C", "setting": "second compound 0.01 µM, first compound 0.01 µM", "value": 70.9, "unit": "%"}, {"measurement": "viability, T/C", "setting": "second compound 0.01 µM, first compound 0.0316 µM", "value": 69.2, "unit": "%"}, {"measurement": "viability, T/C", "setting": "second compound 0.01 µM, first compound 0.1 µM", "value": 65.9, "unit": "%"}, {"measurement": "viability, T/C", "setting": "second compound 0.0316 µM, first compound 0.000316 µM", "value": 74.8, "unit": "%"}, {"measurement": "viability, T/C", "setting": "second compound 0.0316 µM, first compound 0.001 µM", "value": 72.1, "unit": "%"}, {"measurement": "viability, T/C", "setting": "second compound 0.0316 µM, first compound 0.00316 µM", "value": 65.2, "unit": "%"}, {"measurement": "viability, T/C", "setting": "second compound 0.0316 µM, first compound 0.01 µM", "value": 60, "unit": "%"}, {"measurement": "viability, T/C", "setting": "second compound 0.0316 µM, first compound 0.0316 µM", "value": 59.1, "unit": "%"}, {"measurement": "viability, T/C", "setting": "second compound 0.0316 µM, first compound 0.1 µM", "value": 55, "unit": "%"}, {"measurement": "viability, T/C", "setting": "second compound 0.1 µM, first compound 0.000316 µM", "value": 58.8, "unit": "%"}, {"measurement": "viability, T/C", "setting": "second compound 0.1 µM, first compound 0.001 µM", "value": 56.4, "unit": "%"}, {"measurement": "viability, T/C", "setting": "second compound 0.1 µM, first compound 0.00316 µM", "value": 51.5, "unit": "%"}, {"measurement": "viability, T/C", "setting": "second compound 0.1 µM, first compound 0.01 µM", "value": 51.1, "unit": "%"}, {"measurement": "viability, T/C", "setting": "second compound 0.1 µM, first compound 0.0316 µM", "value": 51.5, "unit": "%"}, {"measurement": "viability, T/C", "setting": "second compound 0.1 µM, first compound 0.1 µM", "value": 48.7, "unit": "%"}, {"measurement": "viability, T/C", "setting": "second compound 0.316 µM, first compound 0.000316 µM", "value": 46.5, "unit": "%"}, {"measurement": "viability, T/C", "setting": "second compound 0.316 µM, first compound 0.001 µM", "value": 46.6, "unit": "%"}, {"measurement": "viability, T/C", "setting": "second compound 0.316 µM, first compound 0.00316 µM", "value": 43.9, "unit": "%"}, {"measurement": "viability, T/C", "setting": "second compound 0.316 µM, first compound 0.01 µM", "value": 43.3, "unit": "%"}, {"measurement": "viability, T/C", "setting": "second compound 0.316 µM, first compound 0.0316 µM", "value": 42.9, "unit": "%"}, {"measurement": "viability, T/C", "setting": "second compound 0.316 µM, first compound 0.1 µM", "value": 40.4, "unit": "%"}, {"measurement": "viability, T/C", "setting": "second compound 1 µM, first compound 0.000316 µM", "value": 48, "unit": "%"}, {"measurement": "viability, T/C", "setting": "second compound 1 µM, first compound 0.001 µM", "value": 49.3, "unit": "%"}, {"measurement": "viability, T/C", "setting": "second compound 1 µM, first compound 0.00316 µM", "value": 50.2, "unit": "%"}, {"measurement": "viability, T/C", "setting": "second compound 1 µM, first compound 0.01 µM", "value": 46.3, "unit": "%"}, {"measurement": "viability, T/C", "setting": "second compound 1 µM, first compound 0.0316 µM", "value": 48.5, "unit": "%"}, {"measurement": "viability, T/C", "setting": "second compound 1 µM, first compound 0.1 µM", "value": 46.9, "unit": "%"}]}
